Laboratory results: ChEMBL document CHEMBL1201862, “PubChem BioAssay data set” (2004)
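Exposure lasted 48 hours, with cells grown in 96-well plates and compounds tested at five concentrations. At the GI50, growth is halved.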 Activity calls are given as the source filed them. Rule as the data show it: active = GI50 up to about 1.1 µM and inactive = higher.

Experiments:
Experiment in all cases: NCI anticancer screen, dose series, 48 h
786-0 = test system: 786-0
OVCAR-3 = test system: OVCAR-3
TK-10 = test system: TK-10
NCI-H460 = test system: NCI-H460
LOX IMVI = test system: LOX IMVI
IGROV-1 = test system: IGROV-1
XF498 = test system: XF498
K562 = test system: K562
HOP-62 = test system: HOP-62
SNB-78 = test system: SNB-78
SK-MEL-5 = test system: SK-MEL-5
SN12C = test system: SN12C
MOLT-4 = test system: MOLT-4
NCI-H226 = test system: NCI-H226
KM-20L2 = test system: KM-20L2
A549 = test system: A549
SF-539 = test system: SF-539
RPMI-8226 = test system: RPMI-8226
A498 = test system: A498
HCC 2998 = test system: HCC 2998
SK-OV-3 = test system: SK-OV-3
KM12 = test system: KM12
DMS-273 = test system: DMS-273
Malme-3M = test system: Malme-3M
LXFL 529 = test system: LXFL 529
OVCAR-4 = test system: OVCAR-4
M14 = test system: M14
SW-620 = test system: SW-620
DMS-114 = test system: DMS-114
HT-29 = test system: HT-29
HCT-15 = test system: HCT-15
SK-MEL-28 = test system: SK-MEL-28
SF-268 = test system: SF-268
EKVX = test system: EKVX
RXF 393 = test system: RXF 393
U-251 = test system: U-251
CAKI-1 = test system: CAKI-1
SR = test system: SR
SK-MEL-2 = test system: SK-MEL-2
NCI-H522 = test system: NCI-H522
COLO 205 = test system: COLO 205
HOP-92 = test system: HOP-92
UACC-62 = test system: UACC-62
SNB-75 = test system: SNB-75
NCI-H23 = test system: NCI-H23
UACC-257 = test system: UACC-257
SNB-19 = test system: SNB-19
CCRF-CEM = test system: CCRF-CEM
SF-295 = test system: SF-295
DLD-1 = test system: DLD-1
ACHN = test system: ACHN
OVCAR-8 = test system: OVCAR-8
RXF 631 = test system: RXF 631
UO-31 = test system: UO-31

Measured: GI50

O=[N+]([O-])c1ccc(NC2OCC(O)C(O)C2O)cc1 (centres undefined)
> 100 µM: HCT-15
inactive: 786-0 > 100 µM | OVCAR-3 > 100 µM | TK-10 > 100 µM | NCI-H460 > 100 µM | LOX IMVI > 100 µM | IGROV-1 > 100 µM | XF498 > 100 µM | K562 > 100 µM | HOP-62 > 100 µM | SNB-78 > 100 µM | SK-MEL-5 > 100 µM | SN12C > 100 µM | MOLT-4 > 100 µM | NCI-H226 > 100 µM | KM-20L2 > 100 µM | A549 > 100 µM | SF-539 > 100 µM | RPMI-8226 > 100 µM | A498 > 100 µM | HCC 2998 > 100 µM | SK-OV-3 > 100 µM | KM12 > 100 µM | DMS-273 > 100 µM | Malme-3M > 100 µM | LXFL 529 > 100 µM | OVCAR-4 > 100 µM | M14 > 100 µM | SW-620 > 100 µM | DMS-114 > 100 µM | HT-29 > 100 µM | SK-MEL-28 > 100 µM | SF-268 > 100 µM | EKVX > 100 µM | RXF 393 43 µM | U-251 > 100 µM | CAKI-1 > 100 µM | SR > 100 µM | SK-MEL-2 > 100 µM | NCI-H522 > 100 µM | COLO 205 > 100 µM | HOP-92 > 100 µM | UACC-62 > 100 µM | SNB-75 > 100 µM | NCI-H23 > 100 µM | UACC-257 > 100 µM | SNB-19 > 100 µM | CCRF-CEM > 100 µM | SF-295 > 100 µM | DLD-1 > 100 µM | ACHN > 100 µM | OVCAR-8 > 100 µM | RXF 631 > 100 µM | UO-31 > 100 µM
